Source: PubChem BioAssay AID1259411 (Chemical Carcinogenesis Research Information System (CCRIS), 2018)
Calls of active or inactive are those of the source. The rule behind the calls is not given here.

System: rodent carcinogenicity bioassays, tumor incidence
Assay: CCRIS carcinogenicity studies
Procedure, shortened: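 NCI-built, expert-reviewed records of carcinogenicity and related test outcomes (mutagenicity, tumor promotion/inhibition) compiled from published and report sources, historical span 1985-2011, not updated.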

**Q.** For `O=S(=O)([O-])[O-].[Cd+2]`, which carcinogen call (Species: HAMSTER, Strain/Sex: SYRIAN/FEMALE, Route: INHALATION, Dose: 0, 30 UG/M3 19 HR/D 5 D/WK FOR 65 WK FOR A TOTAL CADMIUM DOSE OF 0, 180 MG/M3 (STUDY DURATION: 77 WK), Dose: 0, 30 UG/M3 19 HR/D 5 D/WK FOR 65 WK FOR A TOTAL CADMIUM DOSE OF 0, 180 MG/M3 (STUDY DURATION: 77 WK)) is on record?
**A.** inactive; negative

**Q.** What about the carcinogen call (Species: HAMSTER, Strain/Sex: SYRIAN/MALE, Route: INHALATION, Dose: 0, 30 UG/M3 19 HR/D 5 D/WK FOR 65 WK FOR A TOTAL CADMIUM DOSE OF 0, 180 MG/M3 (STUDY DURATION: 113 WK), Dose: 0, 30 UG/M3 19 HR/D 5 D/WK FOR 65 WK FOR A TOTAL CADMIUM DOSE OF 0, 180 MG/M3 (STUDY DURATION: 113 WK)) of the same compound?
**A.** inactive; negative

**Q.** What about the carcinogen call (Species: RAT, Strain/Sex: ALBINO/MALE, Route: SUBCUTANEOUS, Dose: 0.5 MG IN WATER 1/WK FOR 10 WK, Tumor Site: Type of Lesion: INJECTION SITE: SARCOMA, TESTES: INTERSTITIAL CELL TUMOR) of the same compound?
**A.** active; positive

**Q.** And the carcinogen call (Species: RAT, Strain/Sex: CB/MALE, Route: SUBCUTANEOUS, Dose: 0.5 MG, 1/WK FOR 10 WK, Tumor Site: Type of Lesion: INJECTION SITE: SARCOMA, TESTES: INTERSTITIAL CELL TUMOR)?
**A.** active; positive

**Q.** What about the carcinogen call (Species: RAT, Strain/Sex: WISTAR/FEMALE, Route: INHALATION, Dose: 0, 90 UG/M3 22 HR/D 7 D WK FOR 18 MO (STUDY DURATION: 18 MO), Tumor Site: Type of Lesion: LUNG: ALVEOLAR/BRONCHIOLAR ADENOMA, ALVEOLAR/BRONCHIOLAR ADENOCARCINOMA, SQUAMOUS CELL CARCINOMA) of the same compound?
**A.** active; positive

**Q.** What about the carcinogen call (Species: RAT, Strain/Sex: WISTAR/FEMALE, Route: INHALATION, Dose: 0, 90 UG/M3 22 HR/D 7 D/WK FOR 18 MO (STUDY DURATION: 29 MO), Tumor Site: Type of Lesion: LUNG: ALVEOLAR/BRONCHIOLAR ADENOMA, ADENOCARCINOMA, SQUAMOUS CELL CARCINOMA) of the same compound?
**A.** active; positive

**Q.** And the carcinogen call (Species: RAT, Strain/Sex: WISTAR/FEMALE, Route: INHALATION, Dose: 0, 90 UG/M3 22 HR/D 7 D/WK FOR 18 MO (STUDY DURATION: 29 MO), Tumor Site: Type of Lesion: LUNG: TUMOR)?
**A.** active; positive

**Q.** And the carcinogen call (Species: RAT, Strain/Sex: WISTAR/FEMALE, Route: INHALATION, Dose: 0, 90 UG/M3 AEROSOL 22 HR/D 7 D/WK FOR 18 MO (STUDY DURATION: 29 MO), Tumor Site: Type of Lesion: LUNG: ALVEOLAR/BRONCHIOLAR ADENOMA, ADENOCARCINOMA, SQUAMOUS CELL CARCINOMA)?
**A.** active; positive

**Q.** And the carcinogen call (Species: RAT, Strain/Sex: WISTAR/MALE, Route: INHALATION, Dose: 0, 90 UG/M3 22 HR/D 7 D/WK FOR 14 MO (STUDY DURATION: 31 MO), Tumor Site: Type of Lesion: LUNG: ALVEOLAR/BRONCHIOLAR ADENOMA, ADENOCARCINOMA)?
**A.** active; positive

**Q.** What about the carcinogen call (Species: RAT, Strain/Sex: WISTAR/MALE, Route: INHALATION, Dose: 0, 90 UG/M3 22 HR/D 7 D/WK FOR 14 MO (STUDY DURATION: 31 MO), Tumor Site: Type of Lesion: LUNG: TUMOR) of the same compound?
**A.** active; positive

**Q.** And the carcinogen call (Species: RAT, Strain/Sex: WISTAR/MALE, Route: INHALATION, Dose: 0, 90 UG/M3 22 HR/D 7 D/WK FOR 135 MO (STUDY DURATION: 13.5 MO), Tumor Site: Type of Lesion: LUNG: ALVEOLAR/BRONCHIOLAR ADENOMA, ALVEOLAR/BRONCHIOLAR ADENOCARCINOMA, SQUAMOUS CELL CARCINOMA)?
**A.** active; positive

**Q.** And the carcinogen call (Species: RAT, Strain/Sex: WISTAR/MALE, Route: INHALATION, Dose: 0, 90 UG/M3 AEROSOL 22 HR/D 7 D/WK FOR 14 MO (STUDY DURATION: 31 MO), Tumor Site: Type of Lesion: LUNG: ALVEOLAR/BRONCHIOLAR ADENOMA, ADENOCARCINOMA)?
**A.** active; positive

**Q.** For `O=NN1CCC(=O)NC1=O`, which carcinogen call (Species: RAT, Strain/Sex: WISTAR/FEMALE, Route: ORAL, Dose: 0, 450 MG/L CITRATE BUFFER SOLUTION IN DRINKING WATER 5D/WK FOR AN AVERAGE TOTAL DOSE OF 0, 950 MG (STUDY DURATION: 28 W, Dose: 0, 450 MG/L CITRATE BUFFER SOLUTION IN DRINKING WATER 5D/WK FOR AN AVERAGE TOTAL DOSE OF 0, 950 MG (STUDY DURATION: 28 W, Tumor Site: Type of Lesion: LIVER: CARCINOMA) is on record?
**A.** active; positive

**Q.** And the carcinogen call (Species: RAT, Strain/Sex: WISTAR/MALE, Route: ORAL, Dose: 0, 450 MG/L CITRATE BUFFER SOLUTION IN DRINKING WATER 5D/WK FOR AN AVERAGE TOTAL DOSE OF 0, 1250 MG (STUDY DURATION: 32, Dose: 0, 450 MG/L CITRATE BUFFER SOLUTION IN DRINKING WATER 5D/WK FOR AN AVERAGE TOTAL DOSE OF 0, 1250 MG (STUDY DURATION: 32, Tumor Site: Type of Lesion: LIVER: CARCINOMA, KIDNEY: ADENOMA)?
**A.** active; positive

**Q.** How did the carcinogen call (Species: RAT, Strain/Sex: CD-1/FEMALE, Route: INTRAGASTRIC, Dose: 0, 100-150 MG/KG BW IN SALINE 2/WK FOR 8 WK THEN ONCE ON WK 9 (TOTAL DOSE: 0; 339 MG) (STUDY DURATION: 300 D), Dose: 0, 100-150 MG/KG BW IN SALINE 2/WK FOR 8 WK THEN ONCE ON WK 9 (TOTAL DOSE: 0; 339 MG) (STUDY DURATION: 300 D), Tumor Site: Type of Lesion: MAMMARY GLAND: ADENOCARCINOMA, CARCINOMA, SMALL INTESTINE: ADENOCARCINOMA, BLADDER: PAPILLOMA, Tumor Site: Type of Lesion: MAMMARY GLAND: ADENOCARCINOMA, CARCINOMA, SMALL INTESTINE: ADENOCARCINOMA, BLADDER: PAPILLOMA) turn out when `CC1=C[C@]2(O[C@@H]3O[C@H](CO)[C@@H](O)[C@H](O)[C@H]3O)C[C@@H](C)C(=O)[C@@H]2[C@](C)(O)C12CC2` was run?
**A.** active; positive

**Q.** What about the carcinogen call (Species: RAT, Strain/Sex: CD-1/FEMALE, Route: INTRAGASTRIC, Dose: 0, 780 MG/KG BW IN SALINE ONCE THEN 0, 100-200 MG/KG 1/WK FOR 8 WK (TOTAL DOSE: 0; 300 MG) (STUDY DURATION: 300 D), Dose: 0, 780 MG/KG BW IN SALINE ONCE THEN 0, 100-200 MG/KG 1/WK FOR 8 WK (TOTAL DOSE: 0; 300 MG) (STUDY DURATION: 300 D), Tumor Site: Type of Lesion: MAMMARY GLAND: ADENOCARCINOMA, CARCINOMA, SMALL INTESTINE: ADENOCARCINOMA) of the same compound?
**A.** active; positive

**Q.** Which carcinogen call (Species: RAT, Strain/Sex: SWISS/FEMALE, Route: INTRAPERITONEAL, Dose: 10 MG/KG, Tumor Site: Type of Lesion: MAMMARY GLAND: FIBROADENOMA) does the source give for `NC(Cc1ccc(N(CCCl)CCCl)cc1)C(=O)O` (stereo not given) here?
**A.** active; positive

**Q.** For `N#Cc1ccc(C/C(=N\NC(=O)Nc2ccc(OC(F)(F)F)cc2)c2cccc(C(F)(F)F)c2)cc1`, which carcinogen call (Species: Mouse, Strain/Sex: CD-1/Female (65/Group), Route: Oral, Dose: 0 (aqueous carboxymethylcellulose), 100, 250, 1000 mg/kg/day of 96.3% metaflumizone by gavage for 18 mo, study duration, Dose: 0 (aqueous carboxymethylcellulose), 100, 250, 1000 mg/kg/day of 96.3% metaflumizone by gavage for 18 mo, study duration) is on record?
**A.** inactive; negative

**Q.** What about the carcinogen call (Species: Mouse, Strain/Sex: CD-1/Male (65/Group), Route: Oral, Dose: 0 (aqueous carboxymethylcellulose), 100, 250, 1000 mg/kg/day of 96.3% metaflumizone by gavage for 18 mo, study duration, Dose: 0 (aqueous carboxymethylcellulose), 100, 250, 1000 mg/kg/day of 96.3% metaflumizone by gavage for 18 mo, study duration) of the same compound?
**A.** inactive; negative

**Q.** What about the carcinogen call (Species: Rat, Strain/Sex: Sprague-Dawley/Female (80/Group), Route: Oral, Dose: 0 (aqueous carboxymethylcellulose), 30, 60, 300 mg/kg/day (adjusted to 200 mg after 2 weeks of treatment) of 96.3% metaf, Dose: 0 (aqueous carboxymethylcellulose), 30, 60, 300 mg/kg/day (adjusted to 200 mg after 2 weeks of treatment) of 96.3% metaf) of the same compound?
**A.** inactive; negative

**Q.** What about the carcinogen call (Species: Rat, Strain/Sex: Sprague-Dawley/Male (80/Group), Route: Oral, Dose: 0 (aqueous carboxymethylcellulose), 30, 60, 300 mg/kg/day of 96.3% metaflumizone by gavage for 24 mo, study duration 24, Dose: 0 (aqueous carboxymethylcellulose), 30, 60, 300 mg/kg/day of 96.3% metaflumizone by gavage for 24 mo, study duration 24) of the same compound?
**A.** inactive; negative

**Q.** Which results are given for `Brc1c(Br)c(Br)c(Oc2c(Br)c(Br)c(Br)c(Br)c2Br)c(Br)c1Br`?
**A.** carcinogen call (Species: MOUSE, Strain/Sex: B6C3F1/FEMALE, Route: ORAL, Dose: 0, 25000, 50000 PPM IN DIET FOR 103 WK (STUDY DURATION: 103 WK), Dose: 0, 25000, 50000 PPM IN DIET FOR 103 WK (STUDY DURATION: 103 WK)): inactive; negative; carcinogen call (Species: MOUSE, Strain/Sex: B6C3F1/MALE, Route: ORAL, Dose: 0, 25000, 50000 PPM IN DIET FOR 103 WK (STUDY DURATION: 103 WK), Dose: 0, 25000, 50000 PPM IN DIET FOR 103 WK (STUDY DURATION: 103 WK), Tumor Site: Type of Lesion: LIVER: HEPATOCELLULAR ADENOMA OR CARCINOMA, THYROID GLAND: FOLLICULAR CELL ADENOMA OR CARCINOMA): equivocal; carcinogen call (Species: RAT, Strain/Sex: F344/FEMALE, Route: ORAL, Dose: 0, 25000, 50000 PPM IN DIET FOR 103 WK (STUDY DURATION: 103 WK), Dose: 0, 25000, 50000 PPM IN DIET FOR 103 WK (STUDY DURATION: 103 WK), Tumor Site: Type of Lesion: LIVER: NEOPLASTIC NODULE, NEOPLASTIC NODULE OR HEPATOCELLULAR CARCINOMA): active; positive; carcinogen call (Species: RAT, Strain/Sex: F344/MALE, Route: ORAL, Dose: 0, 25000, 50000 PPM IN DIET FOR 103 WK (STUDY DURATION: 103 WK), Dose: 0, 25000, 50000 PPM IN DIET FOR 103 WK (STUDY DURATION: 103 WK), Tumor Site: Type of Lesion: LIVER: NEOPLASTIC NODULE, NEOPLASTIC NODULE OR HEPATOCELLULAR CARCINOMA): active; positive
